± gives the expanded uncertainty stated by the source.
Details: Liquid; for mass density: 298.15 K, 101.33 kPa, Vibrating tube method; for vapor or sublimation pressure: Ebulliometric method (Recirculating still)

## CCOC(=O)C(C)O (racemic) [DL-ethyl lactate]
  mass density: 1028.08 ± 0.1 kg/m3

## COC(=O)OC [dimethyl carbonate]
  mass density: 1063.29 ± 0.08 kg/m3
336.61 K
  vapor or sublimation pressure: 40 ± 3.5 kPa
344.29 K
  vapor or sublimation pressure: 53.33 ± 3.8 kPa
350.5 K
  vapor or sublimation pressure: 66.66 ± 4.6 kPa
355.83 K
  vapor or sublimation pressure: 79.99 ± 5.3 kPa
360.49 K
  vapor or sublimation pressure: 93.32 ± 5.9 kPa
363 K
  vapor or sublimation pressure: 101.3 ± 6.4 kPa

## CO [methanol]
  mass density: 786.56 ± 0.12 kg/m3
